Publication PMC8621172, “Manipulating Estrogenic/Anti-Estrogenic Activity of Triphenylethylenes towards Development of Novel Anti-Neoplastic SERMs” (International Journal of Molecular Sciences, 2021)

Tests used:
[1] = test system: Ishikawa endometrial adenocarcinoma cell line; test: Alkaline phosphatase (AlkP) activity in Ishikawa cells; assay type: cell-based, human; details: for Relative alkaline phosphatase activity: 72 h, DMSO set to 1; for effect on AlkP activity (in words): 72 h treatment, 5-dose assay 1 nM to 10 µM
Protocol: Alkaline phosphatase (AlkP) activity in these human endometrial cancer cells is markedly stimulated by estrogens.
Because of the potential SERM character of the compounds tested, their estrogenic effects were studied in an endometrial-derived cell culture model, the human endometrial adenocarcinoma cell line Ishikawa. […] All compounds were screened at two concentrations, 0.1 and 1 µM. Its agonistic effect was compared to the vehicle control DMSO (data shown in Supplementary Materials). […] The four compounds were studied in a concentration range of 1 nM to 10 µM.
Estrogens stimulate the activity of alkaline phosphatase (AlkP) in Ishikawa cells (human endometrial adenocarcinoma cells; kindly provided by Prof. Masato Nishida, National Hospital Organization, Kasumigaura Medical Center, Japan). This enzyme activity is estimated by using the chromogen substrate (4-nitrophenylphosphate). […] The procedure was modified by Littlefield et al., 1990 [42].
After 72 h incubation, cells were harvested, washed twice with PBS, and incubated at −80 °C for about 30 min to lyse the cells. After thawing, the lysates were resuspended in reaction buffer (274 mM mannitol, 100 mM CAPS, 4 mM MgCl2, pH 10.4) containing 4 mM p-nitrophenylphosphate (NPP). After incubation for 1 h in the dark, AlkP activity was assayed by using the hydrolysis of p-nitrophenylphosphate to p-nitrophenol at pH 10.4 and the spectrometric determination of the kinetic of the product formation at 405 nm. All compounds were tested in technical triplicates and biological triplicates. Statistical analysis was performed by analysis of variance (ANOVA) and Tukey’s post-hoc test with the significance level of p < 0.05.

MCF-7 cells = test: NCI growth inhibition on MCF-7 (single dose and five-dose, SRB); assay type: cell-based, human; details: for Growth Inhibition on MCF-7 (%) / inhibition at 10 µM: 10 µM; for inhibition at 10 µM / GI50: Homo sapiens, MCF7; for GI50: MCF-7, five-dose assay, 48 h
Protocol: Compounds were submitted to the Developmental Therapeutics Program (DTP) of the National Cancer Institute (NCI). The program uses a panel of 60 human tumor cell lines representing nine tissue types, including leukemia, non-small cell lung cancer (NSCLC), melanoma, colon cancer, ovarian cancer, CNS cancer, renal cancer, prostate cancer, and breast cancer, to screen for potential new anti-cancer agents. […] Primary screening of synthesized compounds was performed by testing a single high dose of 10 µM in the full NCI-60 panel. The percent growth of treated cells relative to the no-drug control and relative to the time zero number of cells was measured, and a mean graph was provided. The percentage inhibition was then calculated by subtracting the values obtained from 100.
All compounds were subjected to the NCI in vitro disease-oriented human cells screening panel assay. The human tumor cell lines of the cancer-screening panel are grown in RPMI 1640 medium containing 5% fetal bovine serum and 2 mM L-glutamine. For a typical screening experiment, cells are inoculated into 96-well microtiter plates in 100 μL at plating densities ranging from 5000 to 40,000 cells/well depending on the doubling time of individual cell lines. After cell inoculation, the microtiter plates are incubated at 37 °C, 5% CO2, 95% air, and 100% relative humidity for 24 h prior to the addition of experimental drugs. After 24 h, two plates of each cell line are fixed in situ with TCA to represent a measurement of the cell population for each cell line at the time of drug addition. Experimental drugs are solubilized in dimethyl sulfoxide at 400-fold the desired final maximum test concentration and stored frozen prior to use. At the time of drug addition, an aliquot of frozen concentrate is thawed and diluted to twice the desired final maximum test concentration with complete medium containing 50 μg/mL gentamicin. Additional four, 10-fold, or ½ log serial dilutions are made to provide a total of five drug concentrations plus control. Aliquots of 100 μL of these different drug dilutions are added to the appropriate microtiter wells already containing 100 μL of medium, resulting in the required final drug concentrations. Following drug addition, the plates are incubated for an additional 48 h at 37 °C, 5% CO2, 95% air, and 100% relative humidity. For adherent cells, the assay is terminated by the addition of cold TCA. Cells are fixed in situ by the gentle addition of 50 μL of cold 50% (w/v) TCA (final concentration, 10% TCA) and incubated for 60 min at 4 °C. The supernatant is discarded, and the plates are washed five times with tap water and air-dried. Sulforhodamine B (SRB) solution (100 μL) at 0.4% (w/v) in 1% acetic acid is added to each well, and plates are incubated for 10 min at room temperature. After staining, unbound dye is removed by washing five times with 1% acetic acid, and the plates are air-dried. Bound stain is subsequently solubilized with a 10 mM trizma base, and the absorbance is read on an automated plate reader at a wavelength of 515 nm. For suspension cells, the methodology is the same except that the assay is terminated by fixing settled cells at the bottom of the wells by gently adding 50 μL of 80% TCA (final concentration, 16% TCA). Compounds are screened at a dose of 10 µM, hits showing mean growth inhibition over 60 cell lines >50% are escalated for 5-dose screening assay. To construct a dose-response curve, about 60 cell lines of nine tumor subpanels were incubated with five concentrations (0.01–100 μM) for each compound. Three response parameters (GI50, TGI, and LC50) were calculated for each cell line.

| SMILES | Relative alkaline phosphatase activity ([1]; 1 µM) | inhibition at 10 µM (MCF-7 cells) | also measured |
| --- | --- | --- | --- |
| COc1ccc(C(C)=C(c2ccc(Cl)cc2)c2ccc(OCCN3CCOCC3)cc2)cc1F [Compound 18, E/Z-4-(2-{4-[1-(4-Chlorophenyl)-2-(3-fluoro-4-methoxyphenyl)-propenyl]-phenoxy}-ethyl)-morpholine] | 1.01 ± 0.24 |  | Growth Inhibition on MCF-7 (%) (MCF-7 cells): No inhibition |
| COc1cc(C(C)=C(c2ccc(Cl)cc2)c2ccc(OCCN3CCCCC3)cc2)ccc1F [Compound 24, E/Z-1-(2-{4-[1-(4-Chlorophenyl)-2-(4-fluoro-3-methoxyphenyl)-propenyl]-phenoxy}-ethyl)-piperidine] |  | 49.3% |  |
| COc1ccc(C(C)=C(c2ccc(Cl)cc2)c2ccc(OCCN3CCOCC3)cc2)cc1 [Compound 13, E/Z-4-(2-{4-[1-(4-Chloro-phenyl)-2-(4-methoxy-phenyl)-propenyl]-phenoxy}-ethyl)-morpholine] | 3.74 ± 2.05 | 1.21% |  |
| COc1cc(C(C)=C(c2ccc(Cl)cc2)c2ccc(OCCN3CCOCC3)cc2)ccc1F [Compound 25, E/Z-4-(2-{4-[1-(4-Chlorophenyl)-2-(4-fluoro-3-methoxyphenyl)-propenyl]-phenoxy}-ethyl)-morpholine] |  | 2.75% |  |
| COc1ccc(C(C)=C(c2ccc(Cl)cc2)c2ccc(OCCN3CCCC3)cc2)cc1 [Compound 11, E/Z-1-(2-{4-[1-(4-Chloro-phenyl)-2-(4-methoxy-phenyl)-propenyl]-phenoxy}-ethyl)-pyrrolidine] |  | 87% | Relative alkaline phosphatase activity ([1]; 1 nM): 1.25 ± 0.61; Relative alkaline phosphatase activity ([1]; 10 nM): 1.13 ± 0.31; Relative alkaline phosphatase activity ([1]; 100 nM): 1.75 ± 0.50; Relative alkaline phosphatase activity ([1]; 10 µM): 1.36 ± 0.38; effect on AlkP activity (in words) [1]: increase the AlkP activity in a dose-pendent manner; GI50 (MCF-7 cells): 0.89 µM |
| COc1cc(C(C)=C(c2ccc(O)cc2)c2ccc(Cl)cc2)ccc1F [Compound 4, E/Z-4-[1-(4-Chlorophenyl)-2-(4-fluoro-3-methoxyphenyl)propenyl]-phenol] | 1.10 ± 0.39 |  | Growth Inhibition on MCF-7 (%) (MCF-7 cells): No inhibition |
| CCN(CC)CCOc1ccc(C(=C(C)c2ccc(F)c(OC)c2)c2ccc(Cl)cc2)cc1 [Compound 28, E/Z-(2-{4-[1-(4-Chlorophenyl)-2-(4-fluoro-3-methoxyphenyl)-propenyl]-phenoxy}-ethyl)-diethyl-amine] |  | > 100% | GI50 (MCF-7 cells): 2.17 µM |
| CC(=C(c1ccc(Cl)cc1)c1ccc(OCCN2CCCCCC2)cc1)c1ccccc1 [Compound 9, E/Z-1-(2-{4-[1-(4-Chloro-phenyl)-2-phenyl-propenyl]-phenoxy}-ethyl)-azepane] | 2.94 ± 1.29 | 24% |  |
| COc1cc(C(C)=C(c2ccc(Cl)cc2)c2ccc(OCCN3CCCC3)cc2)ccc1F [Compound 23, E/Z-1-(2-{4-[1-(4-Chlorophenyl)-2-(4-fluoro-3-methoxyphenyl)-propenyl]-phenoxy}-ethyl)-pyrrolidine] |  | 73.5% |  |
| COc1cc(C(C)=C(c2ccc(Cl)cc2)c2ccc(OCCCN(C)C)cc2)ccc1F [Compound 22, E/Z-(3-{4-[1-(4-Chlorophenyl)-2-(4-fluoro-3-methoxyphenyl)-propenyl]-phenoxy}-propyl)-dimethyl-amine] |  | 33.2% |  |
| COc1ccc(C(C)=C(c2ccc(Cl)cc2)c2ccc(OCCN3CCCCC3)cc2)cc1F [Compound 17, E/Z-1-(2-{4-[1-(4-Chlorophenyl)-2-(3-fluoro-4-methoxyphenyl)-propenyl]-phenoxy}-ethyl)-piperidine] | 1.31 ± 0.41 | 85% | GI50 (MCF-7 cells): 3.34 µM |
| COc1ccc(C(C)=C(c2ccc(Cl)cc2)c2ccc(OCCN3CCCCCC3)cc2)cc1F [Compound 19, E/Z-1-(2-{4-[1-(4-Chlorophenyl)-2-(3-fluoro-4-methoxyphenyl)-propenyl]-phenoxy}-ethyl)-azepane] |  | 75.9% | Relative alkaline phosphatase activity ([1]; 1 nM): 1.02 ± 0.13; Relative alkaline phosphatase activity ([1]; 10 nM): 1.06 ± 0.11; Relative alkaline phosphatase activity ([1]; 100 nM): 1.75 ± 0.08; Relative alkaline phosphatase activity ([1]; 10 µM): 0.04 ± 0.04; effect on AlkP activity (in words) [1]: increase the AlkP activity in a dose-pendent manner; GI50 (MCF-7 cells): 3.59 µM |
| CCN(CC)CCOc1ccc(C(=C(C)c2ccc(OC)c(F)c2)c2ccc(Cl)cc2)cc1 [Compound 21, E/Z-(2-{4-[1-(4-Chlorophenyl)-2-(3-fluoro-4-methoxyphenyl)-propenyl]-phenoxy}-ethyl)-diethyl-amine] | 0.90 ± 0.13 | 29.7% |  |
| CC(=C(c1ccc(Cl)cc1)c1ccc(OCCCN(C)C)cc1)c1ccccc1 [Compound 5, E/Z-(3-{4-[1-(4-Chloro-phenyl)-2-phenyl-propenyl]-phenoxy}-propyl)-dimethyl-amine] | 1.08 ± 0.33 | 55% | Relative alkaline phosphatase activity ([1]; 1 nM): 0.93 ± 0.64; Relative alkaline phosphatase activity ([1]; 10 nM): 0.95 ± 0.37; Relative alkaline phosphatase activity ([1]; 100 nM): 1.05 ± 0.30; Relative alkaline phosphatase activity ([1]; 10 µM): 0.21 ± 0.16; effect on AlkP activity (in words) [1]: No significant effects |
| CC(=C(c1ccc(Cl)cc1)c1ccc(OCCN2CCCCC2)cc1)c1ccccc1 [Compound 7, E/Z-1-(2-{4-[1-(4-Chloro-phenyl)-2-phenyl-propenyl]-phenoxy}-ethyl)-piperidine] | 2.55 ± 1.80 | 56.4% |  |
| COc1ccc(C(C)=C(c2ccc(Cl)cc2)c2ccc(OCCCN(C)C)cc2)cc1F [Compound 15, E/Z-(3-{4-[1-(4-Chlorophenyl)-2-(3-fluoro-4-methoxyphenyl)-propenyl]-phenoxy}-propyl)-dimethyl-amine] | 0.86 ± 0.12 | 87% |  |
| COc1cc(C(C)=C(c2ccc(Cl)cc2)c2ccc(OCCN3CCCCCC3)cc2)ccc1F [Compound 26, E/Z-1-(2-{4-[1-(4-Chlorophenyl)-2-(4-fluoro-3-methoxyphenyl)-propenyl]-phenoxy}-ethyl)-azepane] |  | 36.5% |  |
| COc1cc(C(C)=C(c2ccc(Cl)cc2)c2ccc(OCCN(C)C)cc2)ccc1F [Compound 27, E/Z-(2-{4-[1-(4-Chlorophenyl)-2-(4-fluoro-3-methoxyphenyl)-propenyl]-phenoxy}-ethyl)-dimethyl-amine] |  | 68.3% |  |
